In US20130040882A1, “USE OF FIBROBLAST GROWTH FACTOR FRAGMENTS” (NOVARTIS AG, priority 2003, published 2013):
Entries after “also recorded” stand apart in the source; their conditions may differ.

Key:
[1] = test system: uterine gene expression; assay: Gene expression profiling (HGU133A) in the uterus of ovariectomized monkeys treated with estradiol, tamoxifen or raloxifene; type: in vivo, cynomolgus monkeys (Macaca fascicularis)
[2] = test system: luteinising hormone and follicle-stimulating hormone genes in the pituitary gland; assay: Gene expression (HGU133A) in the pituitary gland of ovariectomized monkeys treated with estradiol, tamoxifen or raloxifene; type: in vivo, cynomolgus monkeys (Macaca fascicularis); settings: OVX monkeys
Description: Female sexually mature cynomolgus monkeys (Macaca fascicularis obtained from R. C. Hartelust B V, Tilburg, the Netherlands) approximately 48 months old were subjected to surgery (ovarectomy [OVX] or sham) 10 weeks prior to treatment and were treated for parasitic arthropods and helminthes, subjected to a tuberculin testing, and acclimated to the treatment facility for at least 14 days before beginning treatment.
Surgical Procedures. The ovariectomized cynomolgus monkey (Macaca fascicularis), which has been validated as a useful model predictive of outcomes in human clinical trials of estrogen and SERMs (Cline J M et al., Toxicol Pathol. 29:84-90 (2001)), was used as a model of estrogen deficiency. Animals were ovariectomized approximately 10 weeks before the first day of treatment. The ovaries were removed following anesthesia with a combined intramuscular injection of xylazine (Rompun®: 0.4 mL/animal, Bayer Pharma Division Sante Animale, Puteaux, France) and ketamine hydrochloride (Imalgéne®: 0.6 mL/kg, Mérial, Lyon, France). Sham-operated animals were subjected to the same surgical procedure, except for the removal of ovaries.
Ovariectomized and sham-operated animals were divided into groups of 4 and treated as outlined below.
Gene expression was determined in the pituitary and uterus at the end of drug therapy. Tissues to be analyzed (pituitary glands and uterus) were excised, snap frozen in liquid nitrogen, and stored at −80° C. until RNA extraction was performed.
Total RNA was obtained by acid guanidinium isothiocyanate-phenol-chloroform extraction (Trizol; Invitrogen Life Technologies, San Diego, Calif., USA) and purified on an affinity resin column (RNeasy; Qiagen, Hilden, Germany) according to manufacturer instructions. […] Lockhart D J, Dong H, Byrne M C, et al. Nat. Biotechnol. 1996; 14:1675-1680.
Previous studies have proven the validity of cross-species DNA chip analysis (Hacia J G et al. Nat Genet. 18:155-158 (1998)), therefore, the human gene expression probe arrays HGU133A (Affymetrix, Santa Clara, Calif., USA) containing 22,283 probe sets interrogating primarily annotated human genes were used. One GeneChip was used per tissue, per animal. The resulting image files (.dat files) were processed using the Microarray Analysis Suite 5 (MAS5) software (Affymetrix, Inc.). Tab-delimited files were obtained containing data regarding signal intensity (Signal) and categorical expression level measurement (Absolute Call).

[3] = test system: gene expression in organs; assay: Blind monkey trial of three peptides: gene expression profiling of organs on Affymetrix U95 chips; type: in vivo, cynomolgus monkeys; settings: 100 μg/animal/day sc, two weeks
[4] = compared with untreated OVX controls

## C[C@]12CC[C@@H]3c4ccc(O)cc4CC[C@H]3[C@@H]1CC[C@@H]2O [estradiol]
[1]
  Uterine expression increase: transport genes: 2-7 fold
[1]; compared with OVX control
  Uterine expression downregulation: thioredoxin interacting protein: 3 fold
[1]; compared with OVX controls
  Uterine expression increase: Collagen type 1 alpha 2: 13.2 fold
  Uterine expression increase: cell cycle proteins (CDC28 protein kinase regulatory subunit 2): up to 4 fold
  Uterine expression increase: collagen type 1 alpha1: 6.6 fold
  Uterine expression increase: collagen type III alpha 1: 6.8 fold
  Uterine expression increase: collagen type IV alpha 1: 4.3 fold
  Uterine expression increase: cysteine-rich angiogenic inducer 61: 3.5 fold
  Uterine expression increase: insulin-like GF binding protein 2 (36 kDa): 7.1 fold
  Uterine expression increase: insulin-like growth factor binding protein 5: 5.2 fold
  Uterine expression increase: latent transforming growth factor beta binding protein 1: 3.6 fold
[1]; [4]
  Uterine expression increase: Dishevelled associated activator of morphogenesis 1: 3.1 fold
  Uterine expression increase: integrin (beta 5): 1.7 fold
  Uterine expression increase: progesterone receptor: 9.8 fold
  Uterine expression increase: secreted frizzled-related protein 1: 7.1 fold
  Uterine expression increase: secreted frizzled-related protein 4: 4.2 fold
  Uterine expression increase: wingless-type MMTV integration site (family, member 2B; wnt2B): 2.6 fold
[2]
  Decrease of FSH transcripts in the pituitary gland: 73.4 fold
  Decrease of LH transcripts in the pituitary gland: 16.4 fold

## O=C(c1ccc(OCCN2CCCCC2)cc1)c1c(-c2ccc(O)cc2)sc2cc(O)ccc12 [Ralolxifene]
[1]; uterus, OVX monkeys
  Fold change relative to SHAM control: Cadherin 11, type 2, OB-cadherin (osteoblast): 0.8 fold
  Fold change relative to SHAM control: Calcium channel, voltage-dependent, beta 2 subunit: 1.5 fold
  Fold change relative to SHAM control: Catenin (cadherin-associated protein), alpha-like 1: 1.5 fold
  Fold change relative to SHAM control: Dishevelled associated activator of morphogenesis 1: 0.6 fold
  Fold change relative to SHAM control: Four and a half LIM domains 2: 0.6 fold
  Fold change relative to SHAM control: Integrin, beta 5: 0.9 fold
  Fold change relative to SHAM control: LDL receptor adaptor protein: 1.4 fold
  Fold change relative to SHAM control: LIM and senescent cell antigen-like domains 1: 0.8 fold
  Fold change relative to SHAM control: Mitogen-activated protein kinase kinase kinase kinase 4: 1.2 fold
  Fold change relative to SHAM control: Phosphatase and tensin homolog (mutated in multiple advanced cancers 1): 0.7 fold
  Fold change relative to SHAM control: Phospholipid transfer protein: 0.7 fold
  Fold change relative to SHAM control: Progesterone receptor: 0.6 fold
  Fold change relative to SHAM control: Protein tyrosine kinase 9: 0.8 fold
  Fold change relative to SHAM control: Secreted frizzled-related protein 1: 0.8 fold
  Fold change relative to SHAM control: Secreted frizzled-related protein 4: 0.4 fold
  Fold change relative to SHAM control: Wingless-type MMTV integration site family, member 2B: 0.8 fold
  Fold change relative to SHAM control: Wingless-type MMTV integration site family, member 16: 0.8 fold
[1]; uterus, OVX monkeys, Table 46
  Fold change relative to SHAM control: Insulin receptor: 1.4 fold

## Peptide 3: leukemia inhibitory factor
[3]
  Conclusions of the in vivo Profiling by the Data Mining Team: Function/Pathway: Ca^++ bone metabolism; also recorded: Inflammation; also recorded: Immunosuppression; also recorded: Vascular differentiation
  Findings by the Data Mining Team: Skeletal muscle (gene with direction): JunB and haptoglobin and phospholipase A2 typeIIA+
